Experimental data reported in ChEMBL document CHEMBL4007397, “Discovery of First-in-Class, Potent, and Orally Bioavailable Embryonic Ectoderm Development (EED) Inhibitor with Robust Anticancer Efficacy” (J Med Chem, 2017).
Converted amounts (≈) assume the structure as drawn. The source made the active and inactive calls. The rule behind the calls is not given here.

Assays:
[1] = target: T1, Polycomb protein EED (Homo sapiens, UniProt O75530)
Description: Inhibition of recombinant N-terminal GST-tagged EED (76 to 441 residues) (unknown origin) expressed in Escherichia coli BL21-CodonPlus(DE3)-RIL assessed as reduction in SAH production using H3[21-44,K27Me0) peptide as substrate measured after 20 mins by LC/MS/MS method

[2] = target: T1, Polycomb protein EED; assay: Inhibition of EED in human G401 cells assessed as reduction in global H3K27me3 level after 48 hrs by ELISA; assay type: cell-based
[3] = system: KARPAS-422; assay: Antiproliferative activity against human KARPAS422 cells harboring monoallelic Y641N EZH2 mutation assessed as reduction in cell viability measured every 3 to 4 days up to 14 days by Beckman Coulter-based method; assay type: functional
[4] = Hepatic extraction ratio in mouse liver microsomes; assay type: ADME, microsome; conditions: read-out: ERH
[5] = Protein binding in mouse plasma assessed as unbound fraction; assay type: ADME, cell-free
[6] = system: Mus musculus; assay: Dose normalized AUC in CD-1 mouse at 1 mg/kg, iv by LC-MS/MS analysis; assay type: ADME, organism-based; conditions: in vivo
[7] = system: Mus musculus; assay: Dose normalized AUC in CD-1 mouse at 2 mg/kg, po by LC-MS/MS analysis; assay type: ADME, organism-based; conditions: in vivo
[8] = system: Mus musculus; assay: Dose normalized unbound AUC in CD-1 mouse at 2 mg/kg, po by LC-MS/MS analysis; assay type: ADME, organism-based; conditions: in vivo
[9] = (§1) Oral bioavailability in CD-1 mouse at 2 mg/kg by LC-MS/MS analysis; assay type: ADME, organism-based; conditions: CD-1, mouse, in vivo
[10] = target: T1, Polycomb protein EED; assay: Inhibition of recombinant N-terminal GST-tagged EED (76 to 441 residues) (unknown origin) expressed in Escherichia coli BL21-CodonPlus(DE3)-RIL incubated for 20 mins using EED-H3K27me3 peptide based AlphaScreen competition binding assay
[11] = in vivo; conditions: CD-1, mouse, plasma, iv, 1 mg/kg
[12] = in vivo; conditions: CD-1, mouse, iv, 1 mg/kg
Description: Volume of distribution at steady state in CD-1 mouse at 1 mg/kg, iv or 2 mg/kg, po by LC-MS/MS analysis

[13] = in vivo; conditions: CD-1, mouse
[14] = system: Mus musculus; assay: as §1; assay type: ADME, organism-based; conditions: mouse, in vivo
[15] = Permeability across apical to basolateral side of human Caco2 cells; assay type: ADME, cell-based; conditions: Caco-2, read-out: permeability
[16] = Equilibrium solubility of the compound by high-throughput assay; assay type: physicochemical
[17] = Solubility of the crystalline form of compound at pH 7; assay type: physicochemical
[18] = Solubility of the crystalline form of compound at pH 3; assay type: physicochemical
[19] = Solubility of the crystalline form of compound in simulated gastric fluid; assay type: physicochemical
[20] = Solubility of the crystalline form of compound in fasted state simulated intestinal fluid; assay type: physicochemical
[21] = Protein binding in Sprague-Dawley rat plasma assessed as unbound fraction; assay type: ADME, cell-free
[22] = Plasma protein binding in Beagle dog assessed as unbound fraction; assay type: ADME, cell-free, Canis lupus familiaris
[23] = Protein binding in human plasma assessed as unbound fraction; assay type: ADME, cell-free
[24] = system: Rattus norvegicus; assay: Dose normalized unbound AUC in Sprague-Dawley rat at 2 mg/kg, po by LC-MS/MS analysis; assay type: ADME, organism-based; conditions: in vivo
[25] = system: Canis familiaris; assay: Dose normalized unbound AUC in Beagle dog at 2 mg/kg, po by LC-MS/MS analysis; assay type: ADME, organism-based, Canis lupus familiaris; conditions: in vivo
[26] = Total clearance in Sprague-Dawley rat at 1 mg/kg, iv or 2 mg/kg, po by LC-MS/MS analysis; assay type: ADME, organism-based; conditions: in vivo
[27] = Total clearance in Beagle dog at 1 mg/kg, iv or 2 mg/kg, po by LC-MS/MS analysis; assay type: ADME, organism-based, Canis lupus familiaris; conditions: in vivo
[28] = Oral bioavailability in Sprague-Dawley rat at 2 mg/kg by LC-MS/MS analysis; assay type: ADME, organism-based; conditions: in vivo
[29] = Oral bioavailability in Beagle dog at 2 mg/kg by LC-MS/MS analysis; assay type: ADME, organism-based, Canis lupus familiaris; conditions: in vivo
[30] = system: Mus musculus; assay: Toxicity in CD-1 mouse assessed as effect on body weight at 300 mg/kg, po BID after 14 day; assay type: organism-based; conditions: in vivo, 336 h
[31] = system: KARPAS-422; assay: Antitumor activity against human KARPAS422 cells xenografted in Balb/C nude mouse assessed as tumor regression at 300 mg/kg, po BID for 34 days; assay type: functional, organism-based
[32] = system: Mus musculus; assay: Antitumor activity against human KARPAS422 cells xenografted in Balb/C nude mouse assessed as reduction in tumor volume at 1.5 to 40 mg/kg, po BID for 2 weeks; assay type: functional, organism-based
[33] = system: Mus musculus; assay: In-vivo inhibition of EED in Balb/C nude mouse xenografted with human KARPAS422 cells assessed as decrease in global H3K27me3 level at 1.5 to 40 mg/kg, po BID for 21 days; assay type: functional, organism-based

T1 sequence (O75530 whole entry): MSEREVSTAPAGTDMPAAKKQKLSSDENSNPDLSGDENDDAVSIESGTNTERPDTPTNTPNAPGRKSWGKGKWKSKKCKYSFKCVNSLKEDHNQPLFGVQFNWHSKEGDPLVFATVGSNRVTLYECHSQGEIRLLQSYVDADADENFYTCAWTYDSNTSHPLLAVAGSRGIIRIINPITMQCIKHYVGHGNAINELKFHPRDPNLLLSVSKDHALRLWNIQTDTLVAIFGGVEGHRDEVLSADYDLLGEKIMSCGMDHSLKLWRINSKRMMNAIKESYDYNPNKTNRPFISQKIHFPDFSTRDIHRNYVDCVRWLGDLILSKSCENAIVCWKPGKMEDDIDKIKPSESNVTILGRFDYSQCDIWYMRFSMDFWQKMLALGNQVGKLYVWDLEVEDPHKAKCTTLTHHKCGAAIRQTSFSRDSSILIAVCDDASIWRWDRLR

**Q.** For Cc1ccc(CNc2ncc(-c3ccc(CN(C)C)cc3)c3nncn23)s1, which IC50 [1] is on record?
**A.** 12.4 µM

**Q.** With CN(C)Cc1ccc(-c2cc(C#N)c(NCc3ccno3)n3cnnc23)cc1 as the molecule, how does the IC50 [1] read?
**A.** 0.069 µM

**Q.** Which IC50 [1] does the source give for N#Cc1ccc2nncn2c1NCc1ccco1 here?
**A.** 1 µM

**Q.** Which IC50 [1] does the source give for CN(C)Cc1ccc(-c2cnc(NCc3cnco3)n3cnnc23)cc1 here?
**A.** 0.29 µM

**Q.** Which IC50 [1] does the source give for CN(C)Cc1ccc(-c2cnc(NCc3ccccc3)n3cnnc23)cc1 here?
**A.** 0.049 µM

**Q.** With CN(C)Cc1ccc(-c2cc(C#N)c(NCc3ccon3)n3cnnc23)cc1 as the molecule, how does the IC50 [1] read?
**A.** 0.069 µM

**Q.** With CN(C)Cc1ccc(-c2cc(C#N)c(NCc3ccc(F)s3)n3cnnc23)cc1 as the molecule, how does the IC50 [1] read?
**A.** 0.51 µM

**Q.** For CN(C)Cc1ccc(-c2cnc(NCc3ccno3)n3cnnc23)cc1, which IC50 [1] is on record?
**A.** 0.13 µM

**Q.** For CN(C)Cc1ccc(-c2cc(C#N)c(NCc3sccc3Cl)n3cnnc23)cc1, which IC50 [1] is on record?
**A.** 2.34 µM

**Q.** With CN(C)Cc1ccc(-c2cc(C#N)c(NCc3ccoc3)n3cnnc23)cc1 as the molecule, how does the IC50 [1] read?
**A.** 0.009 µM

**Q.** Which IC50 [1] does the source give for CN(C)Cc1ccc(-c2cc(C#N)c(NCc3ccco3)n3cnnc23)cc1 here?
**A.** 0.009 to 0.013 µM

**Q.** What does the source list for N#Cc1cc(-c2ccccc2F)c2nncn2c1NCc1ccco1?
**A.** IC50 [1]: 0.03 µM; IC50 [2]: 0.21 µM; IC50 [3]: 0.076 µM; hepatic extraction ratio [4]: 0.8; fraction unbound [5]: 0.0281; AUC/dose [6]: 1751 nM·h; AUC/dose [7]: 714 nM·h; fAUC/dose [8]: 20.1 nM·h; bioavailability [9]: 42%

**Q.** With CN(C)Cc1ccc(-c2cnc(NCc3cccs3)n3cnnc23)cc1 as the molecule, how does the IC50 [1] read?
**A.** 0.093 µM

**Q.** Which IC50 [1] does the source give for CN(C)Cc1ccc(-c2cnc(NCc3ccon3)n3cnnc23)cc1 here?
**A.** 0.77 µM

**Q.** With c1coc(CNc2ncc(-c3ccc(CN4CCCC4)cc3)c3nncn23)c1 as the molecule, how does the IC50 [1] read?
**A.** 0.007 µM

**Q.** What about the IC50 [2] of the same molecule?
**A.** 0.032 µM

**Q.** And the IC50 [3]?
**A.** 0.088 µM

**Q.** What about the hepatic extraction ratio [4] of the same molecule?
**A.** 0.52

**Q.** And the fraction unbound [5]?
**A.** 0.381

**Q.** What about the AUC/dose [6] of the same molecule?
**A.** 765 nM·h

**Q.** And the AUC/dose [7]?
**A.** 531 nM·h

**Q.** What about the fAUC/dose [8] of the same molecule?
**A.** 202 nM·h

**Q.** What about the bioavailability [9] of the same molecule?
**A.** 71%

**Q.** For Cc1ccc(CNc2c(C#N)cc(-c3ccc(CN(C)C)cc3)c3nncn23)s1, which IC50 [1] is on record?
**A.** 2.22 µM

**Q.** Which IC50 [1] does the source give for CN(C)Cc1ccc(-c2cnc(NCc3ccoc3)n3cnnc23)cc1 here?
**A.** 0.019 µM

**Q.** Which IC50 [1] does the source give for c1ccc(-c2ccc(NCc3ccco3)n3cncc23)cc1 here?
**A.** 14.8 µM

**Q.** For CN(C)Cc1ccc(-c2cnc(NCc3ccco3)n3cnnc23)cc1, which IC50 [1] is on record?
**A.** 0.013 µM

**Q.** Which IC50 [1] does the source give for N#Cc1c2c(c3nncn3c1NCc1ccco1)CN(Cc1ccccc1)CC2 here?
**A.** 4.03 µM

**Q.** What about the IC50 [2] of the same molecule?
**A.** 3.28 µM

**Q.** And the IC50 [10]?
**A.** 0.62 µM

**Q.** With CN(C)Cc1ccc(-c2cnc(NCc3ccc(F)s3)n3cnnc23)cc1 as the molecule, how does the IC50 [1] read?
**A.** 0.15 µM

**Q.** Which IC50 [1] does the source give for CN(C)Cc1ccc(-c2cc(C#N)c(NCc3cccs3)n3cnnc23)cc1 here?
**A.** 0.02 µM

**Q.** With CCN(c1cc(-c2ccc(CN3CCOCC3)cc2)cc(C(=O)NCc2c(C)cc(C)[nH]c2=O)c1C)C1CCOCC1 [TAZEMETOSTAT] as the molecule, how does the IC50 [3] read?
**A.** 0.012 µM

**Q.** And the fraction unbound [5]?
**A.** 0.014

**Q.** And the AUC/dose [6]?
**A.** 1303 nM·h

**Q.** And the AUC/dose [7]?
**A.** 254 nM·h

**Q.** And the fAUC/dose [8]?
**A.** 4 nM·h

**Q.** What about the bioavailability [9] of the same molecule?
**A.** 20%

**Q.** What about the clearance [11] of the same molecule?
**A.** 22 mL/min/kg

**Q.** What about the Vd [12] of the same molecule?
**A.** 1.2 L/kg

**Q.** What about the half-life [13] of the same molecule?
**A.** 1.6 h

**Q.** Which IC50 [1] does the source give for COc1ccccc1CNc1ncc(-c2ccc(CN(C)C)cc2)c2nncn12 here?
**A.** 0.094 µM

**Q.** With CN(C)Cc1ccc(-c2cc(C#N)c(NCc3cnco3)n3cnnc23)cc1 as the molecule, how does the IC50 [1] read?
**A.** 0.15 µM

**Q.** Which IC50 [1] does the source give for N#Cc1cc(-c2ccccc2)c2nncn2c1NCc1ccco1 here?
**A.** 0.062 µM

**Q.** With Cc1ccsc1CNc1ncc(-c2ccc(CN(C)C)cc2)c2nncn12 as the molecule, how does the IC50 [1] read?
**A.** 0.049 µM

**Q.** Which IC50 [1] does the source give for COc1ccccc1CNc1c(C#N)cc(-c2ccc(CN(C)C)cc2)c2nncn12 here?
**A.** 14.9 µM

**Q.** Which results are given for CS(=O)(=O)c1ccc(-c2cnc(NCc3ccco3)n3cnnc23)cc1?
**A.** IC50 [1]: 0.022 µM; IC50 [2]: 0.22 µM; IC50 [3]: 0.08 µM; fraction unbound [5]: 0.144 to 0.15; AUC/dose [6]: 534 nM·h; AUC/dose [7]: 5648 nM·h; fAUC/dose [8]: 813 nM·h; F [14]: 109%; Papp A→B [15]: 3 ×10⁻⁶ cm/s; solubility thermodynamic [16]: 12 µM (≈ 4.43 µg/mL); solubility [17]: 25 µg/mL (≈ 67.7 µM); solubility [18]: 26 µg/mL (≈ 70.4 µM); solubility [19]: 55 µg/mL (≈ 149 µM); solubility thermodynamic [20]: 35 µg/mL (≈ 94.7 µM); fraction unbound [21]: 0.08; fraction unbound [22]: 0.24; fraction unbound [23]: 0.13; fAUC/dose [24]: 1871 nM·h; fAUC/dose [25]: 1907 nM·h; clearance [26]: 14 mL/min/kg; clearance [27]: 16 mL/min/kg; bioavailability [28]: 60%; bioavailability [29]: 68%; Activity [30]: Non-Toxic; Activity [31]: Active; Activity [32]: Active; Activity [33]: Dose-dependent effect; clearance [11]: 8 mL/min/kg; Vd [12]: 0.8 L/kg; half-life [13]: 2.2 h

**Q.** With CN(C)Cc1ccc(-c2cc(C#N)c(NCc3ccccc3)n3cnnc23)cc1 as the molecule, how does the IC50 [1] read?
**A.** 21.8 µM

**Q.** Which IC50 [1] does the source give for c1ccc(-c2cnc(NCc3ccco3)n3cnnc23)cc1 here?
**A.** 0.052 µM

**Q.** For CN(C)Cc1ccc(-c2cnc(NCc3sccc3Cl)n3cnnc23)cc1, which IC50 [1] is on record?
**A.** 0.053 µM

**Q.** For Cc1ccsc1CNc1c(C#N)cc(-c2ccc(CN(C)C)cc2)c2nncn12, which IC50 [1] is on record?
**A.** 21.8 µM

**Q.** For N#Cc1c2c(c3nncn3c1Cl)CN(Cc1ccccc1)CC2, which IC50 [1] is on record?
**A.** > 100 µM
